According to the NIST ThermoML archive (doi:10.1021/acs.jced.8b00132):

O=C(C(F)(F)C(F)(F)F)C(F)(C(F)(F)F)C(F)(F)F [dodecafluoro-2-methylpentan-3-one]
Settings | thermal conductivity [W/m/K]
330 K, 67724 kPa, Liquid, transient hot wire | 0.07584
330.01 K, 117 kPa, Gas, hot wire | 0.01411
330.01 K, 14125 kPa, Liquid, transient hot wire | 0.05895
330.01 K, 14129 kPa, Liquid, transient hot wire | 0.05898
330.02 K, 117 kPa, Gas, hot wire | 0.01412
330.02 K, 36718 kPa, Liquid, transient hot wire | 0.0672
330.02 K, 36720 kPa, Liquid, transient hot wire | 0.06721
330.06 K, 57396 kPa, Liquid, transient hot wire | 0.07315
330.06 K, 57404 kPa, Liquid, transient hot wire | 0.07318
330.09 K, 27942 kPa, Liquid, transient hot wire | 0.06426
330.09 K, 27945 kPa, Liquid, transient hot wire | 0.06429
330.1 K, 8617 kPa, Liquid, transient hot wire | 0.05649
330.1 K, 8619 kPa, Liquid, transient hot wire | 0.0565
330.14 K, 4470 kPa, Liquid, transient hot wire | 0.05444
330.14 K, 46576 kPa, Liquid, transient hot wire | 0.07022
330.14 K, 46583 kPa, Liquid, transient hot wire | 0.07015
330.15 K, 4473 kPa, Liquid, transient hot wire | 0.05441
330.16 K, 20517 kPa, Liquid, transient hot wire | 0.06186
330.16 K, 20518 kPa, Liquid, transient hot wire | 0.06149
330.19 K, 67678 kPa, Liquid, transient hot wire | 0.07583
330.2 K, 67695 kPa, Liquid, transient hot wire | 0.07583
330.21 K, 178 kPa, Liquid, transient hot wire | 0.05173
330.22 K, 178 kPa, Liquid, transient hot wire | 0.05205
330.23 K, 180 kPa, Liquid, transient hot wire | 0.05206
330.23 K, 36712 kPa, Liquid, transient hot wire | 0.06716
330.23 K, 36715 kPa, Liquid, transient hot wire | 0.06712
330.24 K, 180 kPa, Liquid, transient hot wire | 0.05202
330.24 K, 14124 kPa, Liquid, transient hot wire | 0.05892
330.24 K, 14130 kPa, Liquid, transient hot wire | 0.05892
330.26 K, 57370 kPa, Liquid, transient hot wire | 0.07313
330.26 K, 57385 kPa, Liquid, transient hot wire | 0.07314
330.31 K, 27940 kPa, Liquid, transient hot wire | 0.06422
330.31 K, 27943 kPa, Liquid, transient hot wire | 0.06422
330.33 K, 8610 kPa, Liquid, transient hot wire | 0.05657
330.33 K, 8620 kPa, Liquid, transient hot wire | 0.05647
330.35 K, 46566 kPa, Liquid, transient hot wire | 0.07011
330.35 K, 46569 kPa, Liquid, transient hot wire | 0.07013
330.38 K, 4468 kPa, Liquid, transient hot wire | 0.05439
330.39 K, 4469 kPa, Liquid, transient hot wire | 0.0544
330.39 K, 20517 kPa, Liquid, transient hot wire | 0.06147
330.4 K, 20518 kPa, Liquid, transient hot wire | 0.06147
330.45 K, 36702 kPa, Liquid, transient hot wire | 0.06713
